PubChem BioAssay AID2060601 (Molecular Pharmacology Branch, DTP, NCI, 2025)

Tested on: 874868-142-R-J2-PDC complex spheroids, growth % test/control
Experiment: Anticancer human tumor 874868-142-R-J2-PDC patient-derived head and neck squamous carcinoma cell line growth inhibition [CLK]
Conditions: for IC50: curve of first compound; for viability, T/C: stronger effect = lower value; active = viability on the fitted dose curve at most 10% of control; inactive = the rest
Procedure, shortened: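 Multi-cell-type spheroids combined patient-derived tumor cells with HUVEC endothelial cells and human mesenchymal stem cells. Paired agents were dosed in half-log steps down from about clinical Cmax, or from 10 microM where Cmax was unknown.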
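Note: spheroids exposed to the compounds for 7 days.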
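Throughout, for viability, T/C: 100% = DMSO vehicle control viability.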

COc1ccc([C@@H](O)c2cc(-c3ncnc4cc(N5CCOCC5)ccc34)c(F)cc2Cl)nn1 + CN1CCN(c2cc(C(=O)Nc3cc4cc(-c5cnn(C)c5)ccc4cn3)ccn2)CC1
active: viability, T/C (second compound 1 µM, first compound 0.0316 µM) 0.18% | viability, T/C (second compound 1 µM, first compound 0.1 µM) 0.23% | viability, T/C (second compound 1 µM, first compound 0.316 µM) 2.66% | viability, T/C (second compound 1 µM, first compound 1 µM) 0.22% | viability, T/C (second compound 1 µM, first compound 3.16 µM) 0.24% | viability, T/C (second compound 1 µM, first compound 10 µM) 0.33% | viability, T/C (second compound 3.16 µM, first compound 0.0316 µM) 0.22% | viability, T/C (second compound 3.16 µM, first compound 0.1 µM) 0.16% | viability, T/C (second compound 3.16 µM, first compound 0.316 µM) 3.99% | viability, T/C (second compound 3.16 µM, first compound 1 µM) 0.25% | viability, T/C (second compound 3.16 µM, first compound 3.16 µM) 0.23% | viability, T/C (second compound 3.16 µM, first compound 10 µM) 0.35% | viability, T/C (second compound 10 µM, first compound 0.0316 µM) 0.06% | viability, T/C (second compound 10 µM, first compound 0.1 µM) 0.15% | viability, T/C (second compound 10 µM, first compound 0.316 µM) 2.92% | viability, T/C (second compound 10 µM, first compound 1 µM) 0.15% | viability, T/C (second compound 10 µM, first compound 3.16 µM) 0.22% | viability, T/C (second compound 10 µM, first compound 10 µM) 3.6%
< 31.6 nM: IC50 (second compound 0.316 µM) | IC50 (second compound 1 µM) | IC50 (second compound 3.16 µM) | IC50 (second compound 10 µM)
1990 nM: IC50 (second compound 0.0316 µM)
inactive: viability, T/C (second compound 0.0316 µM, first compound 0.0316 µM) 83.6% | viability, T/C (second compound 0.0316 µM, first compound 0.1 µM) 77.9% | viability, T/C (second compound 0.0316 µM, first compound 0.316 µM) 74.9% | viability, T/C (second compound 0.0316 µM, first compound 1 µM) 70.4% | viability, T/C (second compound 0.0316 µM, first compound 3.16 µM) 36.1% | viability, T/C (second compound 0.0316 µM, first compound 10 µM) 32.6% | viability, T/C (second compound 0.1 µM, first compound 0.0316 µM) 71% | viability, T/C (second compound 0.1 µM, first compound 0.1 µM) 62.7% | viability, T/C (second compound 0.1 µM, first compound 0.316 µM) 64.5% | viability, T/C (second compound 0.1 µM, first compound 1 µM) 48.8% | viability, T/C (second compound 0.1 µM, first compound 3.16 µM) 30.9% | viability, T/C (second compound 0.1 µM, first compound 10 µM) 30.3% | viability, T/C (second compound 0.316 µM, first compound 0.0316 µM) 17.3% | viability, T/C (second compound 0.316 µM, first compound 0.1 µM) 12.2% | viability, T/C (second compound 0.316 µM, first compound 0.316 µM) 13.4% | viability, T/C (second compound 0.316 µM, first compound 1 µM) 9.3% | viability, T/C (second compound 0.316 µM, first compound 3.16 µM) 14.9% | viability, T/C (second compound 0.316 µM, first compound 10 µM) 13.4%
899 nM: IC50 (second compound 0.1 µM)
